Assay results taken from the SangsterLogP compilation.

Clc1ccc(Oc2cccc(Cl)c2Cl)cc1Cl showed a logP of 5.99. Clc1ccc(Oc2c(Cl)cc(Cl)c(Cl)c2Cl)cc1Cl gave a logP of 7.07. Molecule Clc1ccc(Oc2ccccc2)cc1 has a logP of 4.7. With Clc1ccc(Oc2c(Cl)c(Cl)c(Cl)c(Cl)c2Cl)c(Cl)c1Cl the logP was 7.84. Molecule Clc1cc(Cl)c(Oc2c(Cl)c(Cl)cc(Cl)c2Cl)cc1Cl has a logP of 7.13. Clc1ccc(Oc2cc(Cl)c(Cl)c(Cl)c2)cc1 showed a logP of 6.3. Molecule Clc1cc(Oc2c(Cl)c(Cl)cc(Cl)c2Cl)c(Cl)c(Cl)c1Cl has a logP of 7.63. Clc1ccccc1Oc1ccc(Cl)c(Cl)c1Cl gave a logP of 5.72. Clc1ccc(Cl)c(Oc2ccc(Cl)c(Cl)c2)c1 showed a logP of 6.11. Clc1ccc(Oc2cccc(Cl)c2Cl)c(Cl)c1 showed a logP of 5.88. Molecule Clc1cccc(Oc2ccc(Cl)c(Cl)c2Cl)c1 has a logP of 6.07. With Clc1cccc(Oc2ccc(Cl)cc2Cl)c1 the logP was 5.65. Molecule Clc1cc(Cl)c(Cl)c(Oc2cc(Cl)c(Cl)cc2Cl)c1 has a logP of 6.76. Molecule Clc1ccc(Oc2c(Cl)cc(Cl)c(Cl)c2Cl)c(Cl)c1 has a logP of 6.84. For Clc1ccc(Cl)c(Oc2ccccc2)c1, the logP was 5.13. With Clc1ccc(Oc2cc(Cl)c(Cl)c(Cl)c2)cc1Cl the logP was 6.83. In the case of Clc1cc(Oc2ccccc2)cc(Cl)c1Cl, the logP is reported as 5.7. Work on Clc1cc(Cl)c(Oc2ccccc2Cl)cc1Cl yielded a logP of 5.97. Clc1cc(Cl)c(Oc2ccccc2)c(Cl)c1 gave a logP of 5.32. For Clc1ccc(Oc2cc(Cl)c(Cl)c(Cl)c2Cl)cc1, the logP was 6.61. Work on Clc1ccc(Oc2cc(Cl)c(Cl)c(Cl)c2)c(Cl)c1 yielded a logP of 6.63. With Clc1ccc(Oc2c(Cl)ccc(Cl)c2Cl)cc1 the logP was 5.88. Clc1ccc(Oc2cc(Cl)cc(Cl)c2)cc1 showed a logP of 5.77. In the case of Clc1cc(Cl)c(Cl)c(Oc2ccc(Cl)c(Cl)c2)c1, the logP is reported as 6.52. In the case of Clc1cc(Cl)c(Oc2cccc(Cl)c2Cl)cc1Cl, the logP is reported as 6.22. Clc1cc(Cl)c(Cl)c(Oc2ccccc2)c1 gave a logP of 5.62. With Clc1ccc(Oc2ccc(Cl)c(Cl)c2)cc1 the logP was 5.88. For Clc1ccc(Oc2ccc(Cl)cc2Cl)c(Cl)c1, the logP was 5.95. Clc1ccc(Oc2cc(Cl)c(Cl)cc2Cl)c(Cl)c1 showed a logP of 6.38. Clc1ccc(Oc2c(Cl)c(Cl)cc(Cl)c2Cl)cc1Cl gave a logP of 6.78. Molecule Clc1ccc(Oc2ccc(Cl)c(Cl)c2Cl)c(Cl)c1 has a logP of 6.28. Work on Clc1cc(Cl)c(Oc2c(Cl)cccc2Cl)cc1Cl yielded a logP of 5.98. Clc1ccc(Oc2c(Cl)c(Cl)c(Cl)c(Cl)c2Cl)cc1 gave a logP of 6.95. Clc1ccc(Oc2ccccc2)cc1Cl showed a logP of 4.99. Molecule Clc1ccc(Oc2cccc(Cl)c2)cc1 has a logP of 5.13. Molecule Clc1ccc(Oc2c(Cl)ccc(Cl)c2Cl)c(Cl)c1 has a logP of 6.06. Molecule Clc1ccc(Oc2c(Cl)ccc(Cl)c2Cl)cc1Cl has a logP of 6.31. Clc1cc(Cl)c(Oc2cc(Cl)c(Cl)cc2Cl)cc1Cl showed a logP of 6.72. With Clc1ccc(Oc2c(Cl)c(Cl)cc(Cl)c2Cl)c(Cl)c1Cl the logP was 7.14. Clc1ccc(Oc2cc(Cl)ccc2Cl)c(Cl)c1 gave a logP of 5.78. Work on Clc1cc(Cl)c(Oc2ccc(Cl)c(Cl)c2Cl)cc1Cl yielded a logP of 7.01. Clc1cc(Cl)cc(Oc2ccccc2)c1 showed a logP of 5.21. In the case of Clc1cc(Cl)c(Cl)c(Oc2ccc(Cl)c(Cl)c2Cl)c1, the logP is reported as 7.01. Molecule Clc1ccc(Oc2ccc(Cl)c(Cl)c2)cc1Cl has a logP of 6.36. Molecule Clc1ccc(Oc2c(Cl)cc(Cl)cc2Cl)cc1 has a logP of 5.92. For Clc1cc(Cl)cc(Oc2cc(Cl)c(Cl)cc2Cl)c1, the logP was 6.66. With Clc1ccc(Oc2c(Cl)cc(Cl)c(Cl)c2Cl)cc1 the logP was 6.47. Work on Clc1cc(Oc2ccc(Cl)c(Cl)c2Cl)cc(Cl)c1Cl yielded a logP of 6.99. Clc1ccc(Oc2ccccc2Cl)c(Cl)c1 showed a logP of 4.96. In the case of Clc1ccc(Oc2ccccc2Cl)cc1, the logP is reported as 5.03. With Clc1ccc(Cl)c(Oc2cc(Cl)c(Cl)cc2Cl)c1 the logP was 6.22. In the case of Clc1ccc(Oc2c(Cl)c(Cl)cc(Cl)c2Cl)c(Cl)c1, the logP is reported as 6.76. Clc1ccc(Oc2cccc(Cl)c2Cl)cc1 gave a logP of 5.63. For Clc1ccc(Oc2c(Cl)cccc2Cl)cc1, the logP was 5.3. Clc1cc(Oc2cc(Cl)c(Cl)c(Cl)c2Cl)cc(Cl)c1Cl showed a logP of 7.55. Molecule Clc1cc(Cl)cc(Oc2ccc(Cl)c(Cl)c2Cl)c1 has a logP of 6.58. Clc1ccc(Oc2ccc(Cl)cc2Cl)cc1 showed a logP of 5.53. For Clc1ccc(Oc2c(Cl)ccc(Cl)c2Cl)c(Cl)c1Cl, the logP was 6.65. In the case of Clc1ccc(Oc2c(Cl)c(Cl)cc(Cl)c2Cl)cc1, the logP is reported as 6.41. Clc1cc(Cl)cc(Oc2ccc(Cl)c(Cl)c2)c1 gave a logP of 6.22. Work on Clc1cc(Oc2cc(Cl)c(Cl)c(Cl)c2Cl)c(Cl)c(Cl)c1Cl yielded a logP of 7.78. Work on Clc1ccc(Oc2ccccc2)c(Cl)c1Cl yielded a logP of 5.55. Work on Clc1cccc(Oc2ccccc2)c1 yielded a logP of 4.75. In the case of Clc1cc(Cl)c(Oc2cc(Cl)c(Cl)cc2Cl)c(Cl)c1, the logP is reported as 6.49. Molecule Clc1ccc(Oc2cc(Cl)c(Cl)cc2Cl)cc1Cl has a logP of 6.6. With Clc1cc(Cl)c(Oc2cc(Cl)c(Cl)c(Cl)c2Cl)c(Cl)c1 the logP was 7.31. Clc1cccc(Cl)c1Oc1ccccc1 gave a logP of 4.64. Clc1ccccc1Oc1ccccc1 showed a logP of 4.45. Work on Clc1ccc(Oc2cc(Cl)c(Cl)c(Cl)c2Cl)c(Cl)c1Cl yielded a logP of 7.28. In the case of Clc1c(Cl)c(Cl)c(Oc2c(Cl)c(Cl)c(Cl)c(Cl)c2Cl)c(Cl)c1Cl, the logP is reported as 8.16. Clc1ccc(Oc2c(Cl)c(Cl)c(Cl)c(Cl)c2Cl)cc1Cl gave a logP of 7.31. In the case of Clc1ccc(Oc2ccc(Cl)c(Cl)c2)c(Cl)c1, the logP is reported as 6.13. Clc1ccc(Oc2c(Cl)cccc2Cl)c(Cl)c1Cl gave a logP of 6.11. Molecule Clc1ccc(Oc2ccc(Cl)c(Cl)c2Cl)cc1 has a logP of 6.14. For Clc1cc(Cl)cc(Oc2ccc(Cl)cc2Cl)c1, the logP was 6.13. In the case of Clc1ccc(Oc2cc(Cl)c(Cl)c(Cl)c2Cl)c(Cl)c1, the logP is reported as 6.72. For Clc1ccc(Oc2c(Cl)cc(Cl)cc2Cl)c(Cl)c1, the logP was 6.11. Work on Clc1cccc(Oc2ccc(Cl)c(Cl)c2Cl)c1Cl yielded a logP of 6.3. Clc1cccc(Oc2ccccc2)c1Cl showed a logP of 5. Work on Clc1ccc(Cl)c(Oc2ccc(Cl)c(Cl)c2Cl)c1 yielded a logP of 6.51. Work on Clc1ccc(Oc2c(Cl)cccc2Cl)cc1Cl yielded a logP of 5.7. With Clc1cc(Cl)c(Oc2c(Cl)ccc(Cl)c2Cl)cc1Cl the logP was 6.47. In the case of Clc1ccc(Oc2ccccc2)c(Cl)c1, the logP is reported as 4.93. With Clc1ccc(Oc2cc(Cl)ccc2Cl)cc1 the logP was 5.66. Clc1ccc(Oc2ccc(Cl)cc2)cc1 showed a logP of 5.25. Work on Clc1cc(Cl)c(Oc2cc(Cl)c(Cl)c(Cl)c2Cl)cc1Cl yielded a logP of 7.46. For Clc1cc(Cl)c(Oc2ccc(Cl)c(Cl)c2)c(Cl)c1, the logP was 6.44. With Clc1cccc(Oc2ccc(Cl)c(Cl)c2)c1 the logP was 5.74. With Clc1cc(Cl)c(Cl)c(Oc2ccccc2)c1Cl the logP was 5.82. In the case of Clc1ccc(Oc2cc(Cl)c(Cl)cc2Cl)cc1, the logP is reported as 5.99. In the case of Clc1cccc(Oc2cc(Cl)c(Cl)cc2Cl)c1, the logP is reported as 6.14. Clc1ccc(Oc2ccc(Cl)c(Cl)c2Cl)cc1Cl gave a logP of 6.51. In the case of Clc1cc(Cl)c(Oc2c(Cl)c(Cl)c(Cl)c(Cl)c2Cl)cc1Cl, the logP is reported as 7.81. In the case of Clc1cc(Cl)c(Oc2cc(Cl)c(Cl)c(Cl)c2)cc1Cl, the logP is reported as 7.11. Clc1cc(Oc2c(Cl)c(Cl)c(Cl)c(Cl)c2Cl)c(Cl)c(Cl)c1Cl showed a logP of 8.07. For Clc1cc(Oc2c(Cl)ccc(Cl)c2Cl)c(Cl)c(Cl)c1Cl, the logP was 6.98. In the case of Clc1ccc(Oc2cc(Cl)cc(Cl)c2Cl)cc1, the logP is reported as 6.21. Molecule Clc1ccc(Cl)c(Oc2ccccc2)c1Cl has a logP of 5.35. With Clc1ccc(Oc2ccccc2Cl)cc1Cl the logP was 5.5. Molecule Clc1ccc(Oc2ccc(Cl)c(Cl)c2Cl)c(Cl)c1Cl has a logP of 6.82.
